molecular target: SIK2 (Homo sapiens, UniProt Q9H0K1); assay: SIK2 Enzymatic Assay High Version 2 (High ATP); assay type: biochemical; settings: not given
Procedure, shortened: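 At room temperature, enzyme (6 nM, 2× final) was preincubated with compound for 30 min, then 6 mM ATP and 400 μM HDAC5tide (both 2× final) were added for 2 h. ADP formed was measured by ADP-Glo Max (2 h reagent, 1 h detection) using luminescence.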

Chain of SIK2 (Q9H0K1 whole entry, species assumed): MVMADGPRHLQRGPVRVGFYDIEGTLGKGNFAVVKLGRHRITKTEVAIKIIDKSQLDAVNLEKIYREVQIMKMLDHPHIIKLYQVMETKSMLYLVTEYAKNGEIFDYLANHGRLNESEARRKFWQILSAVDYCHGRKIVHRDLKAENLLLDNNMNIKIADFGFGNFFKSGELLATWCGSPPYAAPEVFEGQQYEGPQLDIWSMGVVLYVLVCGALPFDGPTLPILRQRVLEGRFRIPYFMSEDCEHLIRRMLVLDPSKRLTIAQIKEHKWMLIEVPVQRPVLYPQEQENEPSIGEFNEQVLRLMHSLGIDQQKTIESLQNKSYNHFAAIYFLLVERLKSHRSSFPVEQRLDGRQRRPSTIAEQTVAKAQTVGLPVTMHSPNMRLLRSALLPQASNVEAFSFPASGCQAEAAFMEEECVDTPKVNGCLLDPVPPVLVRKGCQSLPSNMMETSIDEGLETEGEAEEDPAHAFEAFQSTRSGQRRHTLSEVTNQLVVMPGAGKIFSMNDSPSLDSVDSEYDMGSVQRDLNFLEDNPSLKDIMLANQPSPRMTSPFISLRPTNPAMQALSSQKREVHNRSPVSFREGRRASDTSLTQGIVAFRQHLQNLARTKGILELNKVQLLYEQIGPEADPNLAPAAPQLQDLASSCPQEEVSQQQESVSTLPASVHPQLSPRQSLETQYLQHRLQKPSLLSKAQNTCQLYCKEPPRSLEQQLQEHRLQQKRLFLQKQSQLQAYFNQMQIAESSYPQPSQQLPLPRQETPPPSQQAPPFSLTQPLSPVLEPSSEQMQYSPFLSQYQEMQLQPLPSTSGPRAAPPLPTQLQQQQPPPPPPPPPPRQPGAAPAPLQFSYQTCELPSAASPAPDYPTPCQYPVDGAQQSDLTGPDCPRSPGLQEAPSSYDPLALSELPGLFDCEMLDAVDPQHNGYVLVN

Q: For `Cc1cc(-c2ccn3nc(Nc4nccc(C)c4F)cc3c2)c(O[C@H]2C[C@H]3COC[C@@H](C2)N3)cn1` [Example 338, N-(3-fluoro-4-methyl-2-pyridyl)-5-[2-methyl-5-[[(1S,5R)-3-oxa-9-azabicyclo[3.3.1]nonan-7-yl]oxy]-4-pyridyl]pyrazolo[1,5-a]pyridin-2-amine], which IC50 is on record?
A: Its IC50 is 0.00325 µM.

Q: Which IC50 does the source give for `Cc1cc(-c2ccn3nc(Nc4ccnnc4)cc3c2)c(O[C@H]2C[C@H]3COC[C@@H](C2)N3C)cn1` [Example 408, 5-[2-methyl-5-[[(1S,5R,7s)-9-methyl-3-oxa-9-azabicyclo[3.3.1]nonan-7-yl]oxy]-4-pyridyl]-N-pyridazin-4-yl-pyrazolo[1,5-a]pyridin-2-amine] here?
A: The IC50 was 0.001 µM.

Q: For `Cc1cc(-c2ccn3nc(Nc4cnccn4)cc3c2)c(O[C@H]2C[C@H]3COC[C@@H](C2)N3)nn1` [Example 486, 5-[6-methyl-3-[[(1S,5R)-3-oxa-9-azabicyclo[3.3.1]nonan-7-yl]oxy]pyridazin-4-yl]-N-pyrazin-2-yl-pyrazolo[1,5-a]pyridin-2-amine], which IC50 is on record?
A: Its IC50 is 0.0285 µM.

Q: For `Cc1cc(-c2ccn3nc(Nc4cccnn4)cc3c2)c(O[C@H]2C[C@H]3COC[C@@H](C2)N3C)cn1` [Example 419, 5-[2-methyl-5-[[(1R,5S,7s)-9-methyl-3-oxa-9-azabicyclo[3.3.1]nonan-7-yl]oxy]-4-pyridyl]-N-pyridazin-3-yl-pyrazolo[1,5-a]pyridin-2-amine], which IC50 is on record?
A: The IC50 was < 0.000847 µM.

Q: `CC[C@@H]1NC[C@@H]1Oc1cnc(C)cc1-c1ccn2nc(NC(=O)C3CC3)cc2c1` (relative stereo) [Example 453, (*S, *S)—N-[5-[5-(2-ethylazetidin-3-yl)oxy-2-methyl-4-pyridyl]pyrazolo[1,5-a]pyridin-2-yl]cyclopropanecarboxamide] was tested. Which IC50 did it give?
A: Its IC50 is 0.0334 µM.

Q: How did the IC50 turn out when `CC#Cc1cc(-c2ccn3nc(NC(=O)C4CC4)cc3c2)c(O[C@H]2C[C@H]3COC[C@@H](C2)N3)cn1` [Example 436, N-[5-[5-[[(1S,5R)-3-oxa-9-azabicyclo[3.3.1]nonan-7-yl]oxy]-2-prop-1-ynyl-4-pyridyl]pyrazolo[1,5-a]pyridin-2-yl]cyclopropanecarboxamide] was run?
A: The IC50 was < 0.000847 µM.

same assay, conditions: enzyme 6 nM, 6 mM ATP and 400 μM HDAC5tide (each 2× final concentration); 30 minutes pre-incubation, 2 hours; ADP-Glo Max luminescence; read-out: SIK2 high ATP IC50 (μM) (Test Example 2)

Q: `Cc1cc(Nc2cc3cc(-c4cc(OC(F)F)ncc4OCC(C)(C)C#N)ccn3n2)nn(C)c1=O` [Example 684, 3-[[6-(difluoromethoxy)-4-[2-[(1,5-dimethyl-6-oxo-pyridazin-3-yl)amino]pyrazolo[1,5-a]pyridin-5-yl]-3-pyridyl]oxy]-2,2-dimethyl-propanenitrile] was tested. Which IC50 did it give?
A: The IC50 was 0.0102 µM.

Q: Which IC50 does the source give for `Cc1cc(-c2ccn3nc(Nc4cc(C)nc(C(F)(F)F)n4)cc3c2)c(OCC(C)(C)O)cn1` [Example 537, 2-methyl-1-[[6-methyl-4-[2-[[6-methyl-2-(trifluoromethyl)pyrimidin-4-yl]amino]pyrazolo[1,5-a]pyridin-5-yl]-3-pyridyl]oxy]propan-2-ol] here?
A: Its IC50 is 0.0241 µM.

Q: How did the IC50 turn out when `COC(=O)c1ccc(Nc2cc3cc(-c4cc(C)ncc4OCC(C)(C)O)ccn3n2)cc1OC` [Example 642, methyl 4-[[5-[5-(2-hydroxy-2-methyl-propoxy)-2-methyl-4-pyridyl]pyrazolo[1,5-a]pyridin-2-yl]amino]-2-methoxy-benzoate] was run?
A: The IC50 was 0.00171 µM.

Q: How did the IC50 turn out when `Cc1cc(-c2ccn3nc(Nc4cc(C)nc(C)n4)cc3c2)c(OCC2(C)COC2)cn1` [Example 546, N-(2,6-dimethylpyrimidin-4-yl)-5-[2-methyl-5-[(3-methyloxetan-3-yl)methoxy]-4-pyridyl]pyrazolo[1,5-a]pyridin-2-amine] was run?
A: The IC50 was 0.0239 µM.

Q: How did the IC50 turn out when `Cc1cncc(Nc2cc3cc(-c4cc(OC(F)F)ncc4OCC(C)(C)C#N)ccn3n2)n1` [Example 683, 3-[[6-(difluoromethoxy)-4-[2-[(6-methylpyrazin-2-yl)amino]pyrazolo[1,5-a]pyridin-5-yl]-3-pyridyl]oxy]-2,2-dimethyl-propanenitrile] was run?
A: The IC50 was 0.000974 µM.

Q: Which IC50 does the source give for `Cc1cc(-c2ccn3nc(Nc4cc(C)nc(C)n4)cc3c2)c(OC[C@H]2OCC[C@@H]2O)cn1` [Example 218, (2R,3S)-2-[[4-[2-[(2,6-dimethylpyrimidin-4-yl)amino]pyrazolo[1,5-a]pyridin-5-yl]-6-methyl-3-pyridyl]oxymethyl]tetrahydrofuran-3-ol] here?
A: Its IC50 is 0.00407 µM.

Q: `COc1cc(Nc2cc3cc(-c4cc(C)ncc4O[C@H]4CC[C@H](O)CC4)ccn3n2)cc(F)c1C(=O)NC1CC1` [Example 649] was tested. Which IC50 did it give?
A: Its IC50 is 0.166 µM.

Q: For `Cc1cc(-c2ccn3nc(NC(=O)C4CC4)cc3c2)c(OCC2(C#N)CCNC2)cn1` (single isomer, unassigned) [Example 210, (*S)—N-[5-[5-[(3-cyanopyrrolidin-3-yl)methoxy]-2-methyl-4-pyridyl]pyrazolo[1,5-a]pyridin-2-yl]cyclopropanecarboxamide], which IC50 is on record?
A: The IC50 was 0.00307 µM.

Q: How did the IC50 turn out when `CNc1nc(C)cc(Nc2cc3cc(-c4cc(C)ncc4OCC(C)(C)O)ccn3n2)n1` [Example 228, 2-methyl-1-[[6-methyl-4-[2-[[6-methyl-2-(methylamino)pyrimidin-4-yl]amino]pyrazolo[1,5-a]pyridin-5-yl]-3-pyridyl]oxy]propan-2-ol] was run?
A: The IC50 was 0.00167 µM.

Q: `Cc1cc(-c2ccn3nc(NC(=O)C4CC4)cc3c2)c(O[C@H]2CCNC2)cn1` [Example 277, N-[5-[2-methyl-5-[(3S)-pyrrolidin-3-yl]oxy-4-pyridyl]pyrazolo[1,5-a]pyridin-2-yl]cyclopropanecarboxamide] was tested. Which IC50 did it give?
A: The IC50 was 0.0139 µM.

Q: `Cc1cc(Nc2cc3cc(-c4cc(OC(F)F)ncc4OC[C@H]4CC(=O)NC4(C)C)ccn3n2)nc(C)n1` (single isomer, unassigned) [Example 732, (*S)-4-[[6-(difluoromethoxy)-4-[2-[(2,6-dimethylpyrimidin-4-yl)amino]pyrazolo[1,5-a]pyridin-5-yl]-3-pyridyl]oxymethyl]-5,5-dimethyl-pyrrolidin-2-one] was tested. Which IC50 did it give?
A: Its IC50 is 0.00164 µM.

Q: `Cc1cc(-c2ccn3nc(Nc4cc(C)nc(C)n4)cc3c2)c(OC[C@@](C)(O)C(F)(F)F)cn1` (single isomer, unassigned) [Example 264, (*R)-3-[[4-[2-[(2,6-dimethylpyrimidin-4-yl)amino]pyrazolo[1,5-a]pyridin-5-yl]-6-methyl-3-pyridyl]oxy]-1,1,1-trifluoro-2-methyl-propan-2-ol] was tested. Which IC50 did it give?
A: The IC50 was 0.0348 µM.

Q: Which IC50 does the source give for `Cc1cc(-c2ccn3nc(NC(=O)C4CC4)cc3c2)c(OC2CCC(=NO)CC2)cn1` (centres unmarked) [Example 199, N-[5-[5-(4-hydroxyiminocyclohexoxy)-2-methyl-4-pyridyl]pyrazolo[1,5-a]pyridin-2-yl]cyclopropanecarboxamide] here?
A: The IC50 was 0.0502 µM.

Q: How did the IC50 turn out when `CNc1nc(C)cc(Nc2cc3cc(-c4cc(C)ncc4OCC(C)(C)C#N)ccn3n2)n1` [Example 309, 2,2-dimethyl-3-[[6-methyl-4-[2-[[6-methyl-2-(methylamino)pyrimidin-4-yl]amino]pyrazolo[1,5-a]pyridin-5-yl]-3-pyridyl]oxy]propanenitrile] was run?
A: Its IC50 is < 0.000847 µM.

Q: For `Cc1cc(-c2ccn3nc(Nc4cc(C)nc(C)n4)cc3c2)c(OC[C@@]23CN[C@@H](CO2)C3)cn1` [Example 238, N-(2,6-dimethylpyrimidin-4-yl)-5-[2-methyl-5-[[(1R,4R)-5-oxa-2-azabicyclo[2.2.1]heptan-4-yl]methoxy]-4-pyridyl]pyrazolo[1,5-a]pyridin-2-amine], which IC50 is on record?
A: Its IC50 is 0.00226 µM.

Q: `Cc1cc(Nc2cc3cc(-c4cc(OC(F)F)ncc4OC[C@@H]4CC(=O)NC4(C)C)ccn3n2)nc(C)n1` (single isomer, unassigned) [Example 738, (*R)-4-[[6-(difluoromethoxy)-4-[2-[(2,6-dimethylpyrimidin-4-yl)amino]pyrazolo[1,5-a]pyridin-5-yl]-3-pyridyl]oxymethyl]-5,5-dimethyl-pyrrolidin-2-one] was tested. Which IC50 did it give?
A: The IC50 was 0.00304 µM.

Q: With `Cc1cc(-c2ccn3nc(Nc4cc(C)nc(C)n4)cc3c2)c(OC[C@](C)(N)C(F)(F)F)cn1` (racemic) [Example 267, (rac-)-5-[5-(2-amino-3,3,3-trifluoro-2-methyl-propoxy)-2-methyl-4-pyridyl]-N-(2,6-dimethylpyrimidin-4-yl)pyrazolo[1,5-a]pyridin-2-amine] as the compound, how does the IC50 read?
A: The IC50 was 0.00331 µM.

Q: For `Cc1cc(-c2ccn3nc(Nc4cc(C)c(C(=O)NC5CC5)c(C)n4)cc3c2)c(O[C@H]2CC[C@H](O)CC2)cn1` [Example 334, N-cyclopropyl-6-[[5-[5-(4-hydroxycyclohexoxy)-2-methyl-4-pyridyl]pyrazolo[1,5-a]pyridin-2-yl]amino]-2,4-dimethyl-pyridine-3-carboxamide], which IC50 is on record?
A: The IC50 was 0.00301 µM.

Q: With `Cc1cc(-c2ccn3nc(NC(=O)C4CC4)cc3c2)c(OC[C@@]23C[C@@H](CO2)N(C)C3)cn1` [Example 237, N-[5-[2-methyl-5-[[(1S,4S)-2-methyl-5-oxa-2-azabicyclo[2.2.1]heptan-4-yl]methoxy]-4-pyridyl]pyrazolo[1,5-a]pyridin-2-yl]cyclopropanecarboxamide] as the compound, how does the IC50 read?
A: The IC50 was 0.0282 µM.

Q: How did the IC50 turn out when `Cc1cc(-c2ccn3nc(Nc4cc(C)c(=O)n(CC5CC5)n4)cc3c2)c(OCC(C)(C)O)cn1` [Example 265, 2-(cyclopropylmethyl)-6-[[5-[5-(2-hydroxy-2-methyl-propoxy)-2-methyl-4-pyridyl]pyrazolo[1,5-a]pyridin-2-yl]amino]-4-methyl-pyridazin-3-one] was run?
A: Its IC50 is 0.00366 µM.

Q: With `Cc1cc(-c2ccn3nc(Nc4cc(C)c(=O)n(CC(C)C)n4)cc3c2)c(OCC(C)(C)O)cn1` [Example 282, 6-[[5-[5-(2-hydroxy-2-methyl-propoxy)-2-methyl-4-pyridyl]pyrazolo[1,5-a]pyridin-2-yl]amino]-2-isobutyl-4-methyl-pyridazin-3-one] as the compound, how does the IC50 read?
A: Its IC50 is 0.00608 µM.

Q: `COc1cc(Nc2cc3cc(-c4cc(C)ncc4OCC(C)(C)C#N)ccn3n2)cc(OC)c1C(=O)NC1CC1` [Example 268, 4-[[5-[5-(2-cyano-2-methyl-propoxy)-2-methyl-4-pyridyl]pyrazolo[1,5-a]pyridin-2-yl]amino]-N-cyclopropyl-2,6-dimethoxy-benzamide] was tested. Which IC50 did it give?
A: Its IC50 is 0.00138 µM.

Q: `Cc1cc(-c2ccn3nc(Nc4cc(C)nc(C)n4)cc3c2)c(OC[C@@H]2CCO[C@@H]2C)cn1` (single isomer, unassigned) [Example 207, N-(2,6-dimethylpyrimidin-4-yl)-5-(2-methyl-5-(((2*R,3*S)-2-methyltetrahydrofuran-3-yl)methoxy)pyridin-4-yl)pyrazolo[1,5-a]pyridin-2-amine] was tested. Which IC50 did it give?
A: Its IC50 is 0.00878 µM.

Source: US20240158392A1 (Janssen Biotech, Inc., priority 2021, published 2024)
